Clc1ccc(SSc2ccc(Cl)cc2)cc1
Settings	solubility (mole fraction)
in acetone, 302.95 K	0.102
in acetone, 308.05 K	0.145
in acetone, 313.25 K	0.208
in chloroform, 303.15 K	0.122
in chloroform, 307.95 K	0.174
in chloroform, 312.55 K	0.243
in ethanol, 304.35 K	0.000264
in ethanol, 307.45 K	0.000783
in ethanol, 312.35 K	0.00305
in ethanol, 317.35 K	0.00786
in ethyl acetate, 303.95 K	0.0201
in ethyl acetate, 307.9 K	0.038
in ethyl acetate, 312.35 K	0.0667
in ethyl acetate, 319.05 K	0.117
in methanol, 303.15 K	0.00014
in methanol, 307.65 K	0.00061
in methanol, 314.15 K	0.00259
in methanol, 318.95 K	0.00552
in toluene, 303.2 K	0.0219
in toluene, 307.85 K	0.0446
in toluene, 314.05 K	0.0864
in toluene, 317.55 K	0.114

— BigSolDB 2.1
